Values of other authors in PMC4282593 (Cancer chemotherapy and pharmacology, 2014).

Test system: recurrent/refractory NBs
Settings: ref [23]

## C[C@]12O[C@H](C[C@]1(O)CO)n1c3ccccc3c3c4c(c5c6ccccc6n2c5c31)CNC4=O [lestaurtinib]
8/16 patients treated at a biologically effective dose
  patients with durable responses: 50%
Phase 1 clinical trial in NB patients
  side effects: limited to mild, including reversible liver transaminase elevations
Patients treated at a biologically effective dose
  duration of durable responses, on average: more than 10 months
